# Experimental data taken from patent US10105357B2, “Indication of antibiotic drugs for preparation of cancer inhibition pharmaceutical composition” (LAUNX BIOMEDICAL CO., LTD., priority 2014, dated 2018).
# Counter-ions that a name gives are not always drawn. Like-named read-outs stand apart in the source and are kept apart here.
# What was measured:
# Format in all cases: cell-based, human
# [1] = system: HepG2 (Hepatocellular Carcinoma); assay: Cell viability analysis, hepatic cancer HepG2; settings: for viability at 10 µM: Homo sapiens
# [2] = system: HL-60 (Acute Promyelocytic Leukemia); assay: Cell viability analysis, leukemia HL-60; settings: for viability at 10 µM: Homo sapiens
# [3] = system: A549 (Lung Adenocarcinoma); assay: Cell viability analysis, lung cancer A549; settings: for viability at 10 µM: Homo sapiens
# [4] = system: LoVo (Colorectal Adenocarcinoma); assay: Cell viability analysis, colon cancer LoVo; settings: for viability at 10 µM: Homo sapiens, LoVo
# [5] = system: MCF7 (Mammary Gland, Adenocarcinoma); assay: Cell viability analysis, breast cancer MCF7; settings: for viability at 10 µM: Homo sapiens
# [6] = system: MKN-45 (Gastric Adenocarcinoma); assay: Cell viability analysis, gastric cancer MKN-45; settings: for viability at 10 µM: Homo sapiens
# [7] = system: TSGH-8301 (Urinary Bladder Carcinoma); assay: Cell viability analysis, bladder cancer TSGH-8301; settings: for viability at 10 µM: Homo sapiens
# [8] = system: HeLa (Cervix Adenocarcinoma); assay: Cell viability analysis, cervical cancer HeLa; settings: for viability at 10 µM: Homo sapiens, HeLa
# [9] = system: PC3 (p53−) (Prostate Adenocarcinoma); assay: Cell viability analysis, prostate cancer PC3; settings: for viability at 10 µM: Homo sapiens
# [10] = system: AGS (Gastric Adenocarcinoma); assay: Cell viability analysis, gastric cancer AGS; settings: for viability at 10 µM: Homo sapiens
# [11] = system: A375 (Amelanotic Melanoma); assay: Cell viability analysis, skin cancer A375; settings: for viability at 10 µM: Homo sapiens
# [12] = system: HI650 (Lung Adenocarcinoma); assay: Cell viability analysis, lung cancer HI650; settings: for viability at 10 µM: Homo sapiens
# [13] = HepG2, 72 h, drug 10 μM, 72 hours, WST-1, OD450 nm, read-out: cell viability (survival rate), HepG2
# [14] = HL-60, 72 h, drug 10 μM, 72 hours, WST-1, OD450 nm, read-out: cell viability (survival rate), HL-60
# [15] = A549, 72 h, drug 10 μM, 72 hours, WST-1, OD450 nm, read-out: cell viability (survival rate), A549
# [16] = 72 h, read-out: cell viability (survival rate), LoVo, drug 10 μM, 72 hours, WST-1, OD450 nm
# [17] = MKN-45, 72 h, drug 10 μM, 72 hours, WST-1, OD450 nm, read-out: cell viability (survival rate), MKN-45
# [18] = 72 h, drug 10 μM, 72 hours, WST-1, OD450 nm, read-out: cell viability (survival rate), TSGH
# [19] = 72 h, drug 10 μM, 72 hours, WST-1, OD450 nm, read-out: cell viability (survival rate), HeLa
# [20] = 72 h, drug 10 μM, 72 hours, WST-1, OD450 nm, read-out: cell viability (survival rate), PC3
# [21] = 72 h, drug 10 μM, 72 hours, WST-1, OD450 nm, read-out: cell viability (survival rate), AGS
# [22] = A-375, 72 h, drug 10 μM, 72 hours, WST-1, OD450 nm, read-out: cell viability (survival rate), A375
# [23] = NCI-H1650, 72 h, drug 10 μM, 72 hours, WST-1, OD450 nm, read-out: cell viability (survival rate), H1650
# [24] = HepG2, 72 h, read-out: cell viability (survival rate), HepG2, drug 10 μM, 72 hours, WST-1, OD450 nm
# [25] = HL-60, 72 h, read-out: cell viability (survival rate), HL-60, drug 10 μM, 72 hours, WST-1, OD450 nm
# [26] = A549, 72 h, read-out: cell viability (survival rate), A549, drug 10 μM, 72 hours, WST-1, OD450 nm
# [27] = MCF7, 72 h, read-out: cell viability (survival rate), MCF7, drug 10 μM, 72 hours, WST-1, OD450 nm
# [28] = 72 h, read-out: cell viability (survival rate), TSGH, drug 10 μM, 72 hours, WST-1, OD450 nm
# [29] = 72 h, read-out: cell viability (survival rate), HeLa, drug 10 μM, 72 hours, WST-1, OD450 nm
# [30] = 72 h, read-out: cell viability (survival rate), PC3, drug 10 μM, 72 hours, WST-1, OD450 nm
# [31] = 72 h, read-out: cell viability (survival rate), AGS, drug 10 μM, 72 hours, WST-1, OD450 nm
# [32] = A-375, 72 h, read-out: cell viability (survival rate), A375, drug 10 μM, 72 hours, WST-1, OD450 nm
# [33] = NCI-H1650, 72 h, read-out: cell viability (survival rate), H1650, drug 10 μM, 72 hours, WST-1, OD450 nm
# [34] = MKN-45, 72 h, read-out: cell viability (survival rate), MKN-45, drug 10 μM, 72 hours, WST-1, OD450 nm
# [35] = drug 10 μM, 72 hours, WST-1, OD450 nm
# [36] = HepG2, drug 10 μM, 72 hours, WST-1, OD450 nm, read-out: cell viability (survival rate), HepG2
# [37] = HL-60, drug 10 μM, 72 hours, WST-1, OD450 nm, read-out: cell viability (survival rate), HL-60
# [38] = A549, drug 10 μM, 72 hours, WST-1, OD450 nm, read-out: cell viability (survival rate), A549
# [39] = drug 10 μM, 72 hours, WST-1, OD450 nm, read-out: cell viability (survival rate), LoVo
# [40] = MCF7, drug 10 μM, 72 hours, WST-1, OD450 nm, read-out: cell viability (survival rate), MCF7
# [41] = MKN-45, drug 10 μM, 72 hours, WST-1, OD450 nm, read-out: cell viability (survival rate), MKN-45
# [42] = drug 10 μM, 72 hours, WST-1, OD450 nm, read-out: cell viability (survival rate), TSGH
# [43] = drug 10 μM, 72 hours, WST-1, OD450 nm, read-out: cell viability (survival rate), HeLa
# [44] = drug 10 μM, 72 hours, WST-1, OD450 nm, read-out: cell viability (survival rate), AGS
# [45] = A-375, drug 10 μM, 72 hours, WST-1, OD450 nm, read-out: cell viability (survival rate), A375
# [46] = NCI-H1650, drug 10 μM, 72 hours, WST-1, OD450 nm, read-out: cell viability (survival rate), H1650
Compound,"viability at 10 µM [4, 16]","viability at 10 µM [1, 24]","viability at 10 µM [2, 25]","viability at 10 µM [3, 26]","viability at 10 µM [5, 27]","viability at 10 µM [7, 28]","viability at 10 µM [8, 29]","viability at 10 µM [9, 30]","viability at 10 µM [10, 31]","viability at 10 µM [11, 32]","viability at 10 µM [12, 33]","viability at 10 µM [6, 34]",further results
Nc1nc(NC2CC2)c2ncn([C@H]3C=C[C@@H](CO)C3)c2n1 [Abacavir sulfate],100%,–,–,–,–,–,–,–,–,–,–,–,"viability at 10 µM [1, 13]: 82.6%; viability at 10 µM [2, 14]: 108%; viability at 10 µM [3, 15]: 87%; viability at 10 µM ([5]; MCF7, 72 h, drug 10 μM, 72 hours, WST-1, OD450 nm, read-out: cell viability (survival rate), MCF7): 79.6%; viability at 10 µM [6, 17]: 94.6%; viability at 10 µM [7, 18]: 148%; viability at 10 µM [8, 19]: 84.2%; viability at 10 µM [9, 20]: 76%; viability at 10 µM [10, 21]: 97.1%; viability at 10 µM [11, 22]: 57.2%; viability at 10 µM [12, 23]: 67%"
Nc1nccs1 [Aminothiazole],86.4%,90.4%,121%,56.1%,108%,86%,65.7%,93.8%,62.3%,78.4%,68.7%,–,–
"C=CC1=C(C(=O)O)N2C(=O)[C@@H](NC(=O)/C(=N\O)c3csc(N)n3)[C@H]2SC1 [Cefdinir (Omnicef), Cefdinir]",111%,106%,104%,97%,55.1%,35.6%,86.4%,135%,79.1%,92.5%,93.6%,70.5%,–
CCC[C@@H]1C[C@@H](C(=O)N[C@@H]([C@H]2O[C@H](SC)[C@H](OP(=O)(O)O)[C@@H](O)[C@H]2O)[C@H](C)Cl)N(C)C1 [Clindamycin phosphate],44.4%,90.2%,110%,31%,38.3%,79.6%,61.4%,40%,91.6%,81.3%,87%,85.6%,–
CN(C)CCCN1c2ccccc2CCc2ccc(Cl)cc21.Cl [Clomipramine HCl (Anafranil)],–,–,–,–,–,–,–,–,–,–,–,–,"cell viability (survival rate), HepG2 [1, 35]: 115.6; cell viability (survival rate), HL-60 [2, 35]: 82.7; cell viability (survival rate), A549 [3, 35]: 69.1; cell viability (survival rate), LoVo [4, 35]: 87.1; cell viability (survival rate), MCF7 [5, 35]: 75.7; cell viability (survival rate), MKN-45 [6, 35]: 70.5; cell viability (survival rate), TSGH [7, 35]: 46.2; cell viability (survival rate), HeLa [8, 35]: 167.6; cell viability (survival rate), PC3 [9, 35]: 75.8; cell viability (survival rate), AGS [10, 35]: 60.2; cell viability (survival rate), A375 [11, 35]: 88.9; cell viability (survival rate), H1650 [12, 35]: 47.5"
CC[C@H]1OC(=O)[C@H](C)[C@@H](O[C@H]2C[C@@](C)(OC)[C@@H](O)[C@H](C)O2)[C@H](C)[C@@H](O[C@@H]2O[C@H](C)C[C@H](N(C)C)[C@H]2O)[C@](C)(O)C[C@@H](C)[C@@H]2N[C@@H](COCCOC)O[C@H]([C@H]2C)[C@]1(C)O [Dirithromycin],83.7%,90.6%,90.2%,64.8%,62.6%,77.2%,91.9%,77.1%,63.2%,83.7%,65.5%,106%,–
CCOC(=O)CCC(=O)O[C@H]1[C@H](O[C@@H]2[C@@H](C)[C@H](O[C@H]3C[C@@](C)(OC)[C@@H](O)[C@H](C)O3)[C@@H](C)C(=O)O[C@H](CC)[C@@](C)(O)[C@H](O)[C@@H](C)C(=O)[C@H](C)C[C@@]2(C)O)O[C@H](C)C[C@@H]1N(C)C [Erythromycin Ethylsuccinate],–,–,–,–,–,–,–,–,–,–,–,–,"viability at 10 µM [1, 36]: 97.1%; viability at 10 µM [2, 37]: 83.6%; viability at 10 µM [3, 38]: 90%; viability at 10 µM [4, 39]: 80%; viability at 10 µM [5, 40]: 88.2%; viability at 10 µM [6, 41]: 129%; viability at 10 µM [7, 42]: 125%; viability at 10 µM [8, 43]: 148%; viability at 10 µM ([9]; drug 10 μM, 72 hours, WST-1, OD450 nm, read-out: cell viability (survival rate), PC3): 112%; viability at 10 µM [10, 44]: 111%; viability at 10 µM [11, 45]: 75%; viability at 10 µM [12, 46]: 83.8%"
"Nc1ccn([C@@H]2CS[C@H](CO)O2)c(=O)n1 [Lamivudine (Epivir), Lamivudine]",71.3%,108%,119%,75.2%,83.2%,71.1%,86.4%,110%,44.7%,95.8%,54.1%,47.7%,–
Cc1cc(=O)[nH]c(=S)[nH]1 [Methylthiouracil],98.9%,–,–,–,–,–,–,–,–,–,–,–,"viability at 10 µM [1, 13]: 106%; viability at 10 µM [2, 14]: 106%; viability at 10 µM [3, 15]: 164%; viability at 10 µM [6, 17]: 79.9%; viability at 10 µM [7, 18]: 83.6%; viability at 10 µM [8, 19]: 88.3%; viability at 10 µM [9, 20]: 151%; viability at 10 µM [10, 21]: 84.8%; viability at 10 µM [11, 22]: 72.1%; viability at 10 µM [12, 23]: 90.2%"
O=C([O-])[C@H](O)[C@@H](O)[C@H](O)[C@H](O)CO.[Na+] [Sodium Gluconate],–,–,–,–,–,–,–,–,–,–,–,–,"viability at 10 µM [1, 36]: 95.3%; viability at 10 µM [2, 37]: 91.2%; viability at 10 µM [3, 38]: 91.9%; viability at 10 µM [4, 39]: 100%; viability at 10 µM [5, 40]: 94.7%; viability at 10 µM [6, 41]: 93%; viability at 10 µM [7, 42]: 97.4%; viability at 10 µM [8, 43]: 73%; viability at 10 µM [10, 44]: 90.8%; viability at 10 µM [11, 45]: 116%; viability at 10 µM [12, 46]: 94.6%"
"CCCc1nc(C)c2c(=O)[nH]c(-c3cc(S(=O)(=O)N4CCN(CC)CC4)ccc3OCC)nn12 [Vardenafil (Vivanza), Vardenafil]",106%,81.8%,127%,96.5%,117%,57.8%,61.7%,–,86.5%,73.2%,67.2%,68.2%,–
Fc1ccc([C@@H]2CCNC[C@H]2COc2ccc3c(c2)OCO3)cc1 [paroxetine],–,–,–,–,–,–,–,–,–,–,–,–,"viability at 10 µM ([7]; 72 h, read-out: The results of antibiotic drug inhibiting cancer cell lines (cell viability analysis), TSGH-8301, TSGH-8301, repeated experiment): 38.4%"
